In brackets after ≈: the same amount, converted by molar mass. One block for each compound: values may come before it.
Key:
Type in all cases: physicochemical
[1] = Dynamic vapor sorption (DVS) isothermal plot of PMEC salt forms; conditions: FIG. 1; for DVS weight increase onset: relative humidity at onset of weight increase
Experimental: The DVS weight increase onset for each salt was measured as noted—35% relative humidity (RH) for the hemi-sulfate; 50% RH for the acetate; and 65% RH for the phosphate hydrate. The phosphate hydrate is termed phosphate or hemi-phosphate and the hemi-sulfate is termed sulfate or hemi-sulfate in the figure.

[2] = Piperazine levels upon storage
[3] = Solubility in isopropanol

SMILES: COC(=O)N1CCNCC1 [PMEC phosphate hydrate, methyl piperazine-1-carboxylate]
- hygroscopicity ([1]; compared with the sulfate and acetate salts): less hygroscopic than the corresponding sulfate and acetate salt
- DVS weight increase onset [1]: 65 % RH
- piperazine levels upon storage ([2]; upon storage, level <0.4 GC area %): do not increase upon storage

SMILES: COC(=O)N1CCNCC1 [hemi-sulfate, methyl piperazine-1-carboxylate]
- DVS weight increase onset [1]: 35 % RH

SMILES: COC(=O)N1CCN(Cc2cccc(NC(=O)Nc3ccc(C)nc3)c2F)CC1 [omecamtiv mecarbil]
- solubility in isopropanol ([3]; 20° C.): about 10 mg/mL
- solubility ([3]; 20 °C, organic solvent or mixture): ~12 mg/mL (≈ 29.9 mM)

Next, values leading:

- piperazine levels upon storage ([2]; storage at 25° C.): up to 18 LC area %
SMILES: COC(=O)N1CCNCC1 [PMEC freebase, methyl piperazine-1-carboxylate]

- DVS weight increase onset [1]: 50 % RH
SMILES: COC(=O)N1CCNCC1 [acetate, methyl piperazine-1-carboxylate]

Source: US12269811B2, “Synthesis of omecamtiv mecarbil” (Amgen Inc., priority 2017, dated 2025)
